Source: patent US20230105108A1, “COMPOUNDS FOR THE TREATMENT OF BACTERIAL INFECTIONS AND POTENTIATION OF ANTIBIOTICS” (GEORGIA STATE UNIVERSITY RESEARCH FOUNDATION, INC., priority 2019, published 2023)

Key:
M. smegmatis = assay: MIC on mycobacteria; assay type: cell-based, Mycobacterium smegmatis; details: M. smegmatis
E. coli (ATCC 25922) = assay: MIC determination, sensitization fold and FIC index on E. coli; assay type: cell-based; details: E. coli
Procedure: Bacteria culture and MICs determination: Gram-negative bacteria were cultured in Mueller Hinton II cation-adjusted broth. Gram-positive bacteria were cultured in LB broth. Mycobacterium smegmatis was cultured in Middlebrook 7H9 Broth. MICs of antibiotics itself were determined by performing two-fold serial dilutions of antibiotics. MICs of antibiotics in the presence of bacterial sensitizers were determined by performing two-fold serial dilutions of antibiotics with or without a constant concentration of bacterial sensitizers. The MICs tests were performed on 96-well plates with a final volume of 200 μl Mueller Hinton II cation-adjusted broth in each well. Each well was inoculated with 5×10^5 CFU/ml bacteria and was incubated for 24 h at 37° C. with continuous shaking of 200 rpm. The bacterial density was then determined by OD600. Bacterial growth %=OD600 of antibiotic treatment group/OD600 of antibiotic non-treatment group. MICs was determined as the concentrations that inhibit more than 90% of bacteria growth.
Sensitization fold determination and FIC index calculations: Sensitization fold=MIC of antibiotic only/MIC of antibiotic with bacterial sensitizer. […] Since the MICs were determined by performing two-fold serial dilutions of antibiotic, so the sensitization fold can is the times of 2.
FIC index between compound a and b was calculated according to the formula below: […]
FIC≤0.5: Synergy; FIC between 0.5 and 1: Additive; FIC between 1 and […]: no interaction; FIC >4: antagonism.
Bacteria strains (as indicated in Table 5B) were cultured with rifampicin at various concentrations in the presence or absence of 10 μM of the indicated compound for 20 h at 37° C. The MIC, sensitization, cytotoxicity, and MIC on mycobacteria were tested according to methods described herein. […] The sensitization activities of compounds on MRSA were tested using rifampicin. The sensitization activities of compounds on E. coli were tested using rifampicin.

B. subtilis = assay: MIC determination and sensitization fold on B. subtilis; assay type: cell-based; details: B. subtilis; for Sensitization fold: erythromycin
[1] = Cytotoxicity in H9c2 cells (CCK-8); assay type: cell-based; details: rat, H9c2 cells (ATCC CRL-1446); H9c2 cells; 24 hours
Procedure: The cytotoxicity in H9c2 (ATCC®CRL-1446™) cells was also determined. The H9c2 cells were maintained in DMEM (Dulbecco's Modified Eagle's Medium) supplemented with 10% fetal bovine serum (MidSci; S01520HI) and 1% penicillin-streptomycin (Sigma-Aldrich; P4333) at 37° C. with 5% CO2. The H9c2 cells were seeded in 96-well plate one day before the experiment. Different concentrations of di-amidine compounds were added into the H9c2 cells. The cells were then incubated with the compounds for 24 hours at 37° C. with 5% CO2. The cell viability was tested by the CCK-8. Specifically, after 24 hour incubation, 10 μL CCK-8 was added to each well. After 3 hours incubation at 37° C., the absorbance at 450 nm was recorded by a plate reader.

E. coli = assay: Sensitization of E. coli (sensitization fold), Example 2; assay type: cell-based
Procedure: The sensitization fold of select compounds of the present invention was determined. E. coli bacteria were cultured in nutrient broth at 37° C. overnight prior to treatment. […] Bacterial density was measured based on OD600.

| Compound | IC50 at 24 h [1] [µM] | Sensitization ability: fold sensitization of E. coli towards rifampicin (E. coli; compound at 25 μM) | other results |
| --- | --- | --- | --- |
| 1, 4-Bis [((4-amidino)-2-methoxy)-phenoxy methyl]2-fluorobenzene dihydrochloride [MD-104] |  |  | MIC on mycobacteria (M. smegmatis): 6 to 12 µM; MIC (E. coli (ATCC 25922); compound alone, read-out: MIC): 50 µM; Sensitization (E. coli (ATCC 25922); rifampicin, compound up to 25 μM): No effect up to 25 μM.; MIC (B. subtilis; compound alone, read-out: MIC): 25 µM; Sensitization fold (B. subtilis; compound at 6 μM): 2-fold at 6.; Sensitization fold (B. subtilis; compound at 12 μM): 8-fold at 12 μM |
| N=C(N)Nc1ccc(-c2ccc(-c3ccc(NC(=N)N)cc3)cc2)cc1 [Compound A] | 50 | At 25 μM, sensitize E. coli towards rifampicin for 256-fold; |  |
| N=C(N)Nc1ccc(-c2ccc(-c3nc4ccc(NC(=N)N)cc4[nH]3)o2)cc1 [Compound B] | 100 | At 25 μM, sensitize E. coli towards rifampicin for 16-fold; |  |
| N=C(N)Nc1ccc(-c2ccc(-c3ccc(NC(=N)N)cc3Cl)o2)c(Cl)c1 [Compound C] | 50 |  | Sensitization ability: fold sensitization of E. coli towards rifampicin (E. coli; compound at 4 μM): At 4 μM, sensitize E. coli towards rifampicin for 516-fold; |
| N=C(N)c1ccc(-c2ccc(-c3ccc(-c4ccc(C(=N)N)o4)o3)o2)cc1 [Compound M] | 100 | 516 fold | Sensitization ability: fold sensitization of E. coli towards rifampicin (E. coli; compound at 15 μM): 32 fold |
| N=C(N)c1ccc(-c2ccc(-c3ccc(-c4ccc(C(=N)N)o4)o3)o2)o1 [Compound N] | 100 | At 25 μM, sensitize E. coli towards rifampicin for 64-fold. |  |
| N=C(N)Nc1ccc(-c2ccc(-c3ccc(-c4ccc(NC(=N)N)cc4)o3)o2)cc1 [Compound O] | > 100 |  | Sensitization ability: fold sensitization of E. coli towards rifampicin (E. coli; compound at 10 μM): At 10 μM, sensitize E. coli towards rifampicin for 256-fold. |
| N=C(N)c1ccc(-c2ccc(-c3ccc(-c4ccc(C(=N)N)o4)s3)s2)o1 [Compound P] | 50 | At 25 μM, sensitize E. coli towards rifampicin for 32-fold; |  |
| N=C(N)c1ccc(-c2ccc(-c3ccc(-c4ccc(C(=N)N)s4)o3)o2)s1 [Compound Q] | 50 | At 25 μM, sensitize E. coli towards rifampicin for 32-fold; |  |
